In US8143374B2, “Polypeptide derivatives of parathyroid hormone (PTH)” (The General Hospital Corporation, priority 2006, dated 2012):
Where a SMILES comes first, the peptide text is derived from it. [ ]: non-standard residue; d: D form. Cha = N[C@@H](CC1CCCCC1)C(=O)O

Legend:
[1] = Circular dichroism spectroscopy, helical residues per peptide chain; type: physicochemical; settings: [Ala1,Arg19]hPTH(1-31)NH2 analogs; calculated from [θ]222
Procedure: Circular Dichroism—CD spectra were obtained on a JASCO J-600 spectropolarimeter at 20° C. Four spectra were averaged and the data smoothed by the JASCO software. The instrument was calibrated with ammonium (+)-10-camphorsulfonate. Peptide concentrations were verified from the absorption at 280 nm, using an extinction coefficient of 5700 M^−1 for the single tryptophan. Data are expressed as the number of helical residues per peptide chain, as calculated from −[θ]222×30/28,000, where [θ]222 is the mean residue elipticity ([θ]) at 222 nm, as was described previously (Barbier, J. R., et al. (2005) J Biol Chem. 280:23771-23777).

[2] = target: T1, PTHR-delNt (Homo sapiens, UniProt Q03431, DEL24-181); assay: Competition binding in COS-7 cell membranes with 125I-[Aib1,3,M]PTH(1-15)NH2 tracer; settings: for IC50: [Ala1,Arg19]hPTH(1-31)NH2 analogs, COS-7 membranes cotransfected with negative-dominant Gαs, read-out: PTHR-delNT (COS-7) IC50; for reduction (alteration) of binding affinity for PTHR-delNt relative to parent peptide: versus the respective parent peptide
T1 construct: expressed in transfected cells; host or cells: COS-7 cells, transient co-transfection; membranes prepared
T1 sequence (Q03431 with tags, fused parts or gaps DEL24-181): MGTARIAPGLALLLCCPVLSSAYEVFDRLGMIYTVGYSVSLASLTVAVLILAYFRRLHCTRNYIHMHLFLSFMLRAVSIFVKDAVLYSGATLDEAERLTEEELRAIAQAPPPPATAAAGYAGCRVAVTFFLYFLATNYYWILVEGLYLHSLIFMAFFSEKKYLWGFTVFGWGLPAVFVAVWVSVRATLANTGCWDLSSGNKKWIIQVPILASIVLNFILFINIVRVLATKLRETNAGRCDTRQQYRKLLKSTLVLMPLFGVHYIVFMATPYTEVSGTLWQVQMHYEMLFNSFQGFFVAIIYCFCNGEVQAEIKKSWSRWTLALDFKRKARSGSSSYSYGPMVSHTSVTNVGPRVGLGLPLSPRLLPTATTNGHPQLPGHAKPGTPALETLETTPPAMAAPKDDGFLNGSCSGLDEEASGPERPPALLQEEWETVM
Procedure: PTHR-delNt is a derivative of the human PTHR that is deleted for most (Ala^24-Arg^181) of the amino-terminal extracellular domain (Shimizu, M., et al. (2001) Endocrinology 142:3068-3074). This PTHR construct was expressed in COS-7 cells via transient DNA transfection. For cAMP assays, the cells were transfected in 24-well plates using 0.2 μg of plasmid DNA and 0.6 μl of Fugene-6 reagent (Roche Diagnostics, Indianapolis Ind.) per well, and assays were performed on the intact cells three to four days after transfection. For binding assays, cell membranes were prepared from transfected COS-7 cells. To increase the maximal binding of ^125I-[Aib^1,3,M]PTH(1-15)NH2 to PTHR-delNt in these membranes, the cells were cotransfected with a negative dominant mutant Gαs protein (Gαs^ND). This mutant Gαs subunit is thought to couple to cognate receptors, and thus stabilize high affinity receptor conformations, more efficiently than does wild-type Gαs, without increasing basal cAMP levels (Berlot, C. H. (2002) J Biol Chem 277:21080-5). A precursor of this mutant Gαs, Gαs(α3β5), was recently used to increase binding of ^125I-[Aib^1,3,M]PTH(1-15)NH2 to PTHR-delNt in COS-7 cell membranes (Dean, T., (2006) Mol Endocrinol 20:931-942). Gαs^ND, which contains the same five amino acid replacement of corresponding Gαi residues in the α3β5 loop as Gαs(α3β5), plus the point mutations of Gly^226 to Ala, which increases affinity for Gβ/γ, and Ala^366 to Ser, which decreases affinity for GDP, yields approximately two-fold higher levels of specific binding of ^125I-[Aib^1,3,M]PTH(1-15)NH2 than does Gαs(α3β5) (data not shown). For the current membrane preparations, COS-7 cells were co-transfected in six-well plates using 1 μg of each plasmid DNA encoding PTHR-delNt and Gαs^ND, and 6 μl of Fugene-6 reagent (Roche Diagnostics, Indianapolis Ind.) per well. Cells were harvested three days after transfection, and membranes were prepared as described (Dean, T., et al. (2006) Mol Endocrinol 20:931-942).
Receptor binding—Binding to the wild-type human PTHR in intact HKRK-B7 cells and ROS 17/2.8 cells was assessed using ^125I-PTH(1-34) as a tracer radioligand, as described (Shimizu, M., (2001) Endocrinology 142:3068-3074). In brief, the cells in 24-well plates (about 500,000 cells per well) were incubated in binding buffer containing radioligand (about 100,000 cpm per well) with or without unlabeled peptide ligand (3×10^−9 to 1×10^−5 M) for four hours at 15° C. The binding mixture was then removed by aspiration, the cells were rinsed three times with binding buffer, lysed in 1 M NaOH, and the entire lysate was counted for gamma-irradiation in a gamma counter. Binding to PTHR-delNt in COS-7 cell membranes was assessed in 96-well, vacuum filtration plates (Multiscreen-Durapore HV, […] membranes, Millipore Corp., Millford, Mass.) using ^125I-[Aib^1,3,M]PTH(1-15)NH2 as a tracer radioligand, as described (Dean, T., (2006) Mol Endocrinol 20:931-942). In brief, cell membranes (20 μg/well) were incubated in membrane binding buffer containing radioligand (30,000 cpm/well) with or without unlabeled peptide ligand (3×10^−9 to 1×10^−5 M) for 90 minutes at 21° C. The plates were then subject to rapid vacuum filtration, the filters were washed once with buffer, detached from the plate and counted for gamma-irradiation in a gamma counter. Non-specific binding was defined as the binding observed in the presence of 1×10^−6 M PTH(1-31)NH2 for HKRK-B7 and ROS 17/2.8 cells, and 1×10^−6 M [Aib^1,3,M]PTH(1-15)NH2 for PTHR-delNt. Specifically bound radioactivity was calculated as a percentage of the radioactivity specifically bound in the absence of competing ligand. […]

Compound | CD helical residues [1] | IC50 [2] | reduction (alteration) of binding affinity for PTHR-delNt relative to parent peptide ([2]; COS-7 membranes) | effect on binding to PTHR-delNt (in words) ([2]; COS-7 membranes)
CC[C@H](C)[C@H](NC(=O)[C@H](CCC(=O)O)NC(=O)[C@H](CO)NC(=O)[C@@H](NC(=O)[C@H](C)N)C(C)C)C(=O)N[C@@H](CCC(N)=O)C(=O)N[C@@H](CC(C)C)C(=O)N[C@@H](CCSC)C(=O)N[C@@H](Cc1c[nH]cn1)C(=O)N[C@@H](CC(N)=O)C(=O)N[C@@H](CC(C)C)C(=O)NCC(=O)N[C@@H](CCCCN)C(=O)N[C@@H](Cc1c[nH]cn1)C(=O)N[C@@H](CC(C)C)C(=O)N[C@@H](CC(N)=O)C(=O)N[C@@H](CO)C(=O)N[C@@H](CCSC)C(=O)N[C@@H](CCCNC(=N)N)C(=O)N[C@@H](CCCNC(=N)N)C(=O)N[C@H](C(=O)N[C@@H](CC1CCCCC1)C(=O)N[C@@H](Cc1c[nH]c2ccccc12)C(=O)N[C@@H](CC(C)C)C(=O)N[C@@H](CCCNC(=N)N)C(=O)N[C@@H](CCCCN)C(=O)N[C@@H](CCCCN)C(=O)N[C@@H](CC(C)C)C(=O)N[C@@H](CCC(N)=O)C(=O)N[C@@H](CC(=O)O)C(=O)N[C@H](C(N)=O)C(C)C)C(C)C [Glu^22→Cha] (H-AVSEIQLMHNLGKHLNSMRRV[Cha]WLRKKLQDV-NH2; N-terminus assumed) | 8 | 126 ± 45 nM |  | 
CC[C@H](C)[C@H](NC(=O)[C@H](CCC(=O)O)NC(=O)[C@H](CO)NC(=O)[C@@H](NC(=O)[C@H](C)N)C(C)C)C(=O)N[C@@H](CCC(N)=O)C(=O)N[C@@H](CC(C)C)C(=O)N[C@@H](CCSC)C(=O)N[C@@H](Cc1c[nH]cn1)C(=O)N[C@@H](CC(N)=O)C(=O)N[C@@H](CC(C)C)C(=O)NCC(=O)N[C@@H](CCCCN)C(=O)N[C@@H](Cc1c[nH]cn1)C(=O)N[C@@H](CC(C)C)C(=O)N[C@@H](CC(N)=O)C(=O)N[C@@H](CO)C(=O)N[C@@H](CCSC)C(=O)N[C@@H](CCCNC(=N)N)C(=O)N[C@@H](CCCNC(=N)N)C(=O)N[C@H](C(=O)N[C@@H](CCC(=O)O)C(=O)N[C@@H](Cc1c[nH]c2ccccc12)C(=O)N[C@@H](CC1CCCCC1)C(=O)N[C@@H](CCCNC(=N)N)C(=O)N[C@@H](CCCCN)C(=O)N[C@@H](CCCCN)C(=O)N[C@@H](CC(C)C)C(=O)N[C@@H](CCC(N)=O)C(=O)N[C@@H](CC(=O)O)C(=O)N[C@H](C(N)=O)C(C)C)C(C)C [Leu^24→Cha] (H-AVSEIQLMHNLGKHLNSMRRVEW[Cha]RKKLQDV-NH2; N-terminus assumed) | 9 | 283 ± 68 nM | three-fold or less | little or no effect on binding to PTHR-delNt

Continued, in another order:

CD helical residues [1] | IC50 [2] | reduction (alteration) of binding affinity for PTHR-delNt relative to parent peptide ([2]; COS-7 membranes) | Compound | effect on binding to PTHR-delNt (in words) ([2]; COS-7 membranes)
8 | 226 ± 39 nM |  | CC[C@H](C)[C@H](NC(=O)[C@H](CCC(=O)O)NC(=O)[C@H](CO)NC(=O)[C@@H](NC(=O)[C@H](C)N)C(C)C)C(=O)N[C@@H](CCC(N)=O)C(=O)N[C@@H](CC(C)C)C(=O)N[C@@H](CCSC)C(=O)N[C@@H](Cc1c[nH]cn1)C(=O)N[C@@H](CC(N)=O)C(=O)N[C@@H](CC(C)C)C(=O)NCC(=O)N[C@@H](CCCCN)C(=O)N[C@@H](Cc1c[nH]cn1)C(=O)N[C@@H](CC(C)C)C(=O)N[C@@H](CC(N)=O)C(=O)N[C@@H](CO)C(=O)N[C@@H](CCSC)C(=O)N[C@@H](CCCNC(=N)N)C(=O)N[C@@H](CCCNC(=N)N)C(=O)N[C@H](C(=O)N[C@@H](CCC(=O)O)C(=O)N[C@@H](Cc1c[nH]c2ccccc12)C(=O)N[C@@H](CC(C)C)C(=O)N[C@@H](CCCNC(=N)N)C(=O)N[C@@H](CCCCN)C(=O)N[C@@H](CCCCN)C(=O)N[C@@H](CC1CCCCC1)C(=O)N[C@@H](CCC(N)=O)C(=O)N[C@@H](CC(=O)O)C(=O)N[C@H](C(N)=O)C(C)C)C(C)C [Leu^28→Cha] (H-AVSEIQLMHNLGKHLNSMRRVEWLRKK[Cha]QDV-NH2; N-terminus assumed) | 
6 | 1870 ± 281 nM | approximately five- to seven-fold | CC[C@H](C)[C@H](NC(=O)[C@H](CCC(=O)O)NC(=O)[C@H](CO)NC(=O)[C@@H](NC(=O)[C@H](C)N)C(C)C)C(=O)N[C@@H](CCC(N)=O)C(=O)N[C@@H](CC(C)C)C(=O)N[C@@H](CCSC)C(=O)N[C@@H](Cc1c[nH]cn1)C(=O)N[C@@H](CC(N)=O)C(=O)N[C@@H](CC(C)C)C(=O)NCC(=O)N[C@@H](CCCCN)C(=O)N[C@@H](Cc1c[nH]cn1)C(=O)N[C@@H](CC(C)C)C(=O)N[C@@H](CC(N)=O)C(=O)N[C@@H](CO)C(=O)N[C@@H](CCSC)C(=O)N[C@@H](CCCNC(=N)N)C(=O)N[C@@H](CCCNC(=N)N)C(=O)N[C@H](C(=O)N[C@@H](CCC(=O)O)C(=O)N[C@@H](Cc1c[nH]c2ccccc12)C(=O)N[C@@H](CC(C)C)C(=O)N[C@@H](CCCNC(=N)N)C(=O)N[C@@H](CC1CCCCC1)C(=O)N[C@@H](CCCCN)C(=O)N[C@@H](CC(C)C)C(=O)N[C@@H](CCC(N)=O)C(=O)N[C@@H](CC(=O)O)C(=O)N[C@H](C(N)=O)C(C)C)C(C)C [Lys^26→Cha] (H-AVSEIQLMHNLGKHLNSMRRVEWLR[Cha]KLQDV-NH2; N-terminus assumed) | 
18 | 629 ± 72 nM |  | CC[C@H](C)[C@H](NC(=O)[C@H](CCC(=O)O)NC(=O)[C@H](CO)NC(=O)[C@@H](NC(=O)[C@H](C)N)C(C)C)C(=O)N[C@@H](CCC(N)=O)C(=O)N[C@@H](CC(C)C)C(=O)N[C@@H](CCSC)C(=O)N[C@@H](Cc1c[nH]cn1)C(=O)N[C@@H](CC(N)=O)C(=O)N[C@@H](CC(C)C)C(=O)NCC(=O)N[C@@H](CCCCN)C(=O)N[C@@H](Cc1c[nH]cn1)C(=O)N[C@@H](CC(C)C)C(=O)N[C@@H](CC(N)=O)C(=O)N[C@@H](CO)C(=O)N[C@@H](CCSC)C(=O)N[C@@H](CCCNC(=N)N)C(=O)N[C@@H](CCCNC(=N)N)C(=O)N[C@H](C(=O)N[C@@H](CCC(=O)O)C(=O)N[C@@H](Cc1c[nH]c2ccccc12)C(=O)N[C@@H](CC(C)C)C(=O)N[C@@H](CCCNC(=N)N)C(=O)N[C@@H](CCCCN)C(=O)N[C@@H](CC1CCCCC1)C(=O)N[C@@H](CC(C)C)C(=O)N[C@@H](CCC(N)=O)C(=O)N[C@@H](CC(=O)O)C(=O)N[C@H](C(N)=O)C(C)C)C(C)C [Lys^27→Cha] (H-AVSEIQLMHNLGKHLNSMRRVEWLRK[Cha]LQDV-NH2; N-terminus assumed) | 
